Drawing on US20230391772A1, “METHODS AND COMPOSITIONS FOR TARGETED PROTEIN DEGRADATION” (Ranok Therapeutics (Hangzhou) Co. Ltd., priority 2020, published 2023), this text covers IC50 and EC50 for 11 compounds.

Assay [1] has as its target T1, HSP90a protein (Homo sapiens, UniProt P07900).
T1 construct: purchased BPS Bioscience 50298
Put plainly: HSP90α-binding fluorescent polarization (FP) assay, BODIPY-labeled RNK04010 probe. To be noted: FP competition with RNK04010 (BODIPY-labeled), 5 nM, 300 min at 25° C. An outline of the steps:
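Test compounds (2.5-fold serial dilution, 20 μM to 5.2 nM) competed with a fluorescent tracer for N-terminal HSP90a, with fluorescence polarization as the read-out. FITC-geldanamycin tracer was used at 5 nM final with 120 min incubation at 25° C; BODIPY-labeled RNK04010 was used at 5 nM final with 300 min incubation.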

Assay [2] concerns the target KRAS(G12C) (Homo sapiens, UniProt P01116, G12C). Put plainly: KRAS(G12C)/SOS1 homogeneous time-resolved fluorescence (HTRF) assay. Further details: purchased Cisbio 63ADK000CB16PEG. To be noted: absence of GTP, 4° C. for 3 hr, read-out: KRAS (G12C) binding. Summed up:
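HTRF kit measuring compound-induced block of KRAS(G12C)-SOS1 interaction without GTP. Compounds tested as 3-fold serial dilutions down to 1.02 nM, incubated with reaction components 3 h at 4 °C in sealed plates before fluorescence read.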
In general terms: In TR-FRET formats the signal depends on donor and acceptor labels being close together.

For assay [3], the system named is MIA PaCa-2 human pancreatic carcinoma. Put plainly: MIA PaCa-2 CCK-8 proliferation assay. Format: cell-based. To be noted: Homo sapiens, MIA PaCa-2, 72 h, MIA PaCa-2 cells. An outline of the steps: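 Percent inhibition derived from CCK-8 optical signal, normalised between DMSO-only cells (0%) and cell-free medium containing DMSO as background. Cells: MIA PaCa-2 carrying 2 KRAS(G12C) copies; NCI-H358, NCI-H23 carrying 1 copy apiece. Concentrations spanned 1.02 nM–20 μM in threefold increments.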
For orientation: Formazan colour is commonly taken as a measure of viable cells.

Sequence of KRAS(G12C) (P01116 1-188 isoform P01116-2 G12C): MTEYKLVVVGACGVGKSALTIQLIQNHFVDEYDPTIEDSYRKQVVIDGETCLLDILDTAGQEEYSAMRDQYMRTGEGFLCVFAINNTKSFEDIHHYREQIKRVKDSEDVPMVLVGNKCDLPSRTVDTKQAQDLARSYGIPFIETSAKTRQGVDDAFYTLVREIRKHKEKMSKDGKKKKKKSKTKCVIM

In the case of `C=CC(=O)N1CCN(c2nc(OC[C@@H]3C[C@@H](OC(=O)N4CCN(Cc5ccc(-n6c(O)nnc6-c6cc(CC)c(O)cc6O)cc5)CC4)CN3C)nc3c2CCN(c2cccc4cccc(Cl)c24)C3)C[C@@H]1CC#N` [Compound 294, (3R,5S)-5-(((4-((S)-4-acryloyl-3-(cyanomethyl)piperazin-1-yl)-7-(8-chloronaphthalen-1-yl)-5,6,7,8-tetrahydropyrido[3,4-d]pyrimidin-2-yl)oxy)methyl)-1-methylpyrrolidin-3-yl 4-(4-(3-(5-ethyl-2,4-dihydroxyphenyl)-5-hydroxy-4H-1,2,4-triazol-4-yl)benzyl)piperazine-1-carboxylate], the IC50 was under 100 nM in assay [1] and over 1000 nM in assay [2]. Moreover, the concentration for a half-maximal effect (EC50) – broadly, the midpoint of the concentration-response curve – in assay [3] was over 1000 nM.
Consider `C=CC(=O)N1CCN(c2nc(OC[C@@H]3C[C@@H](OC(=O)NCc4ccc(-n5c(O)nnc5-c5cc(CC)c(O)cc5O)cc4)CN3C)nc3c2CCN(c2cccc4cccc(Cl)c24)C3)C[C@@H]1CC#N` [Compound 295, (3R,5S)-5-(((4-((S)-4-acryloyl-3-(cyanomethyl)piperazin-1-yl)-7-(8-chloronaphthalen-1-yl)-5,6,7,8-tetrahydropyrido[3,4-d]pyrimidin-2-yl)oxy)methyl)-1-methylpyrrolidin-3-yl 4-(3-(5-ethyl-2,4-dihydroxyphenyl)-5-hydroxy-4H-1,2,4-triazol-4-yl)benzylcarbamate], for which the IC50 in assay [1] is under 100 nM; in assay [2] it was 100 to 1000 nM. In assay [3], the EC50 was over 1000 nM.
Regarding `C=CC(=O)N1CCN(c2nc(OC[C@@H]3CC[C@H](COC(=O)NCc4ccc(-n5c(O)nnc5-c5cc(CC)c(O)cc5O)cc4)N3C)nc3c2CCN(c2cccc4cccc(Cl)c24)C3)C[C@@H]1CC#N` [Compound 296, ((2R,5S)-5-(((4-((S)-4-acryloyl-3-(cyanomethyl)piperazin-1-yl)-7-(8-chloronaphthalen-1-yl)-5,6,7,8-tetrahydropyrido[3,4-d]pyrimidin-2-yl)oxy)methyl)-1-methylpyrrolidin-2-yl)methyl4-(3-(5-ethyl-2,4-dihydroxyphenyl)-5-hydroxy-4H-1,2,4-triazol-4-yl)benzylcarbamate], the figures for the IC50 in assay [1] and in assay [2] were under 100 nM and 100 to 1000 nM, respectively. The half-maximal effective concentration (EC50) in assay [3] is over 1000 nM.
In the case of `C=CC(=O)N1CCN(c2nc(OCC3CCC(COCC(=O)N4CCN(Cc5ccc(-n6c(O)nnc6-c6cc(CC)c(O)cc6O)cc5)CC4)N3)nc3c2CCN(c2cccc4cccc(Cl)c24)C3)C[C@@H]1CC#N` (stereo partly drawn) [Compound 297, 2-((2S)-1-acryloyl-4-(7-(8-chloronaphthalen-1-yl)-2-((5-((2-(4-(4-(3-(5-ethyl-2,4-dihydroxyphenyl)-5-hydroxy-4H-1,2,4-triazol-4-yl)benzyl)piperazin-1-yl)-2-oxoethoxy)methyl)pyrrolidin-2-yl)methoxy)-5,6,7,8-tetrahydropyrido[3,4-d]pyrimidin-4-yl)piperazin-2-yl)acetonitrile], the IC50 in assay [1] was under 100 nM; in assay [2], over 1000 nM. Also, in assay [3], the EC50 was over 1000 nM.
Consider `C=CC(=O)N1CCN(c2nc(OCC3CCC(CN4CCC(Cc5ccc(-n6c(C(=O)NCC(F)(F)F)nnc6-c6cc(C(C)C)c(O)cc6O)cc5)CC4)N3)nc3c2CCN(c2cccc4cccc(Cl)c24)C3)C[C@@H]1CC#N` (stereo partly drawn) [Compound 298, 4-(4-((1-((5-(((4-((S)-4-acryloyl-3-(cyanomethyl)piperazin-1-yl)-7-(8-chloronaphthalen-1-yl)-5,6,7,8-tetrahydropyrido[3,4-d]pyrimidin-2-yl)oxy)methyl)pyrrolidin-2-yl)methyl)piperidin-4-yl)methyl)phenyl)-5-(2,4-dihydroxy-5-isopropylphenyl)-N-(2,2,2-trifluoroethyl)-4H-1,2,4-triazole-3-carboxamide], for which the IC50 in assay [1] was under 100 nM; in assay [2] it was over 1000 nM. In assay [3], this compound displayed an EC50 of 100 to 1000 nM.
For the compound `C=CC(=O)N1CCN(c2nc(OCC3CCC(CNCc4ccc(-n5c(O)nnc5-c5cc(CC)c(O)cc5O)cc4)N3)nc3c2CCN(c2cccc4cccc(Cl)c24)C3)C[C@@H]1CC#N` (stereo partly drawn) [Compound 299, 2-((2S)-1-acryloyl-4-(7-(8-chloronaphthalen-1-yl)-2-((5-(((4-(3-(5-ethyl-2,4-dihydroxyphenyl)-5-hydroxy-4H-1,2,4-triazol-4-yl)benzyl)amino)methyl)pyrrolidin-2-yl)methoxy)-5,6,7,8-tetrahydropyrido[3,4-d]pyrimidin-4-yl)piperazin-2-yl)acetonitrile], the IC50 in assay [1] is under 100 nM; in assay [2], 100 to 1000 nM. Further, the EC50 in assay [3] is over 1000 nM.
As to `C=CC(=O)N1CCN(c2nc(OC[C@@H]3C[C@@H](OCC(=O)N4CCC(CN5CCN(Cc6ccc(-n7c(C(=O)NCC(F)(F)F)nnc7-c7cc(CC)c(O)cc7O)cc6)CC5)CC4)CN3C)nc3c2CCN(c2cccc4cccc(Cl)c24)C3)C[C@@H]1CC#N` [Compound 300, 4-(4-((4-((1-(2-(((3R,5S)-5-(((4-((S)-4-acryloyl-3-(cyanomethyl)piperazin-1-yl)-7-(8-chloronaphthalen-1-yl)-5,6,7,8-tetrahydropyrido[3,4-d]pyrimidin-2-yl)oxy)methyl)-1-methylpyrrolidin-3-yl)oxy)acetyl)piperidin-4-yl)methyl)piperazin-1-yl)methyl)phenyl)-5-(5-ethyl-2,4-dihydroxyphenyl)-N-(2,2,2-trifluoroethyl)-4H-1,2,4-triazole-3-carboxamide], the IC50 in assay [1] and in assay [2] was under 100 nM in each case. The compound further came in with an EC50 in assay [3] of under 100 nM.
In the case of `C=CC(=O)N1CCN(c2nc(OC[C@@H]3C[C@@H](OCC(=O)N4CCC(CN5CCN(Cc6ccc(-n7c(O)nnc7-c7cc(C(C)C)c(O)cc7O)cc6)CC5)CC4)CN3C)nc3c2CCN(c2cccc4cccc(Cl)c24)C3)C[C@@H]1CC#N` [Compound 301, 2-((S)-1-acryloyl-4-(7-(8-chloronaphthalen-1-yl)-2-(((2S,4R)-4-(2-(4-((4-(4-(3-(2,4-dihydroxy-5-isopropylphenyl)-5-hydroxy-4H-1,2,4-triazol-4-yl)benzyl)piperazin-1-yl)methyl)piperidin-1-yl)-2-oxoethoxy)-1-methylpyrrolidin-2-yl)methoxy)-5,6,7,8-tetrahydropyrido[3,4-d]pyrimidin-4-yl)piperazin-2-yl)acetonitrile], the IC50 in assay [1] was under 100 nM; in assay [2] it was 100 to 1000 nM. The EC50 in assay [3] was in the range of 100 to 1000 nM.
For the compound `C=CC(=O)N1CCN(c2nc(OC[C@@H]3C[C@@H](OCC(=O)NCc4ccc(-n5c(O)nnc5-c5cc(C(C)C)c(O)cc5O)cc4)CN3C)nc3c2CCN(c2cccc4cccc(Cl)c24)C3)C[C@@H]1CC#N` [Compound 302, 2-(((3R,5S)-5-(((4-((S)-4-acryloyl-3-(cyanomethyl)piperazin-1-yl)-7-(8-chloronaphthalen-1-yl)-5,6,7,8-tetrahydropyrido[3,4-d]pyrimidin-2-yl)oxy)methyl)-1-methylpyrrolidin-3-yl)oxy)-N-(4-(3-(2,4-dihydroxy-5-isopropylphenyl)-5-hydroxy-4H-1,2,4-triazol-4-yl)benzyl)acetamide], the IC50 in assay [1] was under 100 nM; in assay [2], 100 to 1000 nM. Also, the EC50 in assay [3] fell in the range of 100 to 1000 nM.
Turning to `C=CC(=O)N1CCN(c2nc(OC[C@@H]3C[C@@H](OCC(=O)N4CCC(Cc5ccc(-n6c(C(=O)NCC(F)(F)F)nnc6-c6cc(C(C)C)c(O)cc6O)cc5)CC4)CN3C)nc3c2CCN(c2cccc4cccc(Cl)c24)C3)C[C@@H]1CC#N` [Compound 303, 4-(4-((1-(2-(((3R,5S)-5-(((4-((S)-4-acryloyl-3-(cyanomethyl)piperazin-1-yl)-7-(8-chloronaphthalen-1-yl)-5,6,7,8-tetrahydropyrido[3,4-d]pyrimidin-2-yl)oxy)methyl)-1-methylpyrrolidin-3-yl)oxy)acetyl)piperidin-4-yl)methyl)phenyl)-5-(2,4-dihydroxy-5-isopropylphenyl)-N-(2,2,2-trifluoroethyl)-4H-1,2,4-triazole-3-carboxamide], the IC50 in assay [1] was under 100 nM; in assay [2] it was 100 to 1000 nM. Also, the EC50 in assay [3] fell in the range of 100 to 1000 nM.
For the compound `C=CC(=O)N1CCN(c2nc(OC[C@@H]3CC[C@H](C(=O)N4CCN(C(=O)C5CCN(Cc6ccc(-n7c(C(=O)NCC(F)(F)F)nnc7-c7cc(C(C)C)c(O)cc7O)cc6)CC5)CC4)N3C)nc3c2CCN(c2cccc4cccc(Cl)c24)C3)C[C@@H]1CC#N` [Compound 304, 4-{4-[(4-{4-[(2R,5S)-5-({[7-(8-chloronaphthalen-1-yl)-4-[(3S)-3-(cyanomethyl)-4-(prop-2-enoyl)piperazin-1-yl]-5H,6H,8H-pyrido[3,4-d]pyrimidin-2-yl]oxy}methyl)-1-methylpyrrolidine-2-carbonyl]piperazine-1-carbonyl}piperidin-1-yl)methyl]p-henyl}-5-(2,4-dihydroxy-5-isopropylphenyl)-N-(2,2,2-trifluoroethyl)-1,2,4-triazole-3-carboxamide], the IC50 was under 100 nM in assay [1] and 100 to 1000 nM in assay [2]. The half-maximal effective concentration (EC50) in assay [3] is under 100 nM.
